In US7754740B2, “1H-indole-3-carboxylic acid derivatives and their use as PPAR agonists” (Merck Patent GmbH, priority 2005, dated 2010):

Molecular target: T1, chimeric protein PPARγ-Gal4 (Homo sapiens, UniProt P37231)
T1 construct: Gal4 (yeast transcription factor); expressed in transfected cells; host or cells: CV-1 cells (monkey kidney cells)
T1 sequence (P37231 238-503 limits assumed): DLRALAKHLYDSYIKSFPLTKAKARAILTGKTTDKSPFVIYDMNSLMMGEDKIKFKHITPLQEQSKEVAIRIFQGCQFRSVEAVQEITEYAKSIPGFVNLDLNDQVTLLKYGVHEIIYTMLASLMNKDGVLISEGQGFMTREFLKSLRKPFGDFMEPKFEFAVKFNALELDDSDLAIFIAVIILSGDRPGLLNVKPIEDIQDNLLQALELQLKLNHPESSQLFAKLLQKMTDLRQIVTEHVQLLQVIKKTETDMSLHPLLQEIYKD
Assay: PPARγ-Gal4 transactivation (luciferase reporter) test in cotransfected CV-1 cells
Assay type: cell-based
Description: The measurement of the PPAR activation was performed according to a technique described by Lehmann et al. (J. Biol. Chem., 270, (1995),
CV-1 cells (monkey kidney cells) are cotransfected with an expression vector for the chimeric protein PPARγ-Gal4 and with a “reporter” plasmid that allows expression of the luciferase gene placed under the control of a promoter comprising Gal4 response elements.
The cells are seeded in 96-well microplates and cotransfected using a commercial reagent with the reporter plasmid (pG5-tk-pGL3) and the expression vector for the chimeric protein (PPARγ-Gal4). After incubation for 4 hours, whole culture medium (comprising 10% foetal calf serum) is added to the wells. After 24 hours, the medium is removed and replaced with whole medium comprising the test products. The products are left in contact with the cells for 18 hours. The cells are then lysed and the luciferase activity is measured using a luminometer. A PPARγ activation factor can then be calculated by means of the activation of the expression of the reporter gene induced by the product (relative to the control cells that have received no product).
In the absence of the PPARγ ligand binding domain (vector expressing Gal4 alone), the luciferase activity measured in the presence of an agonist is zero.
The following transactivation result was obtained with a concentration of 50 μM on PPARγ.
The transactivation test using the expression of a chimeric protein Gal-4-PPARγ makes it possible to determine also whether an agonist functions as a “full” agonist or as a “partial” agonist in this system.
An agonist is “partial” in this system if it induces a weaker response, i.e. it has lower efficacy, than rosiglitazone, which is a “full” agonist. In concrete terms, in our system, the transactivation obtained at the plateau with a partial agonist will be between 20% and 50% of the maximum response (efficacy) at the plateau of rosiglitazone.

SMILES | Activation factor of the chimeric protein PPARγ-Gal4 (50 μM, CV-1 cells (monkey kidney cells), 18 hours contact, luciferase reporter, relative to control cells without product (= 1)) | Concentration to reach the maximum stimulation of the PPARγ chimeric protein (Gal4-PPARγ transactivation test, CV-1 cells) [µM] | Emax (transactivation at the plateau as % of the maximum response (efficacy) of rosiglitazone, CV-1 cells, read-out: Maximum stimulation of the PPARγ chimeric protein obtained with rosiglitazone) [%]
CCOC(=O)c1c(C)n(Cc2ccccc2)c2cc(-c3cccnc3)c(OCCCC(=O)O)cc12 [Example 4, Ethyl-benzyl-5-(3-carboxypropoxy)-2-methyl-6-pyrid-3-yl-1H-indole-3-carboxylate] | 17 | – | –
CCOC(=O)c1c(C)n(CCOC)c2cc(CCCC3CCCC3)c(OCCCC(=O)O)cc12 [Example 31, ethyl 5-(3-carboxypropoxy)-6-(3-cyclopentylpropyl)-1-(2-methoxyethyl)-2-methyl-1H-indole-3-carboxylate] | – | 1 | 24
